Experimental data from patent US20260345593A1, “ORAL FORMULATION OF N-PYRIDINYL ACETAMIDE DERIVATIVE FOR TREATING INTERSTITIAL LUNG DISEASE” (AstraZeneca AB, priority 2022, published 2026).

Assays:
CYP3A4 = assay: Example 1: 4-β-hydroxy-cholesterol levels in blood (CYP3A4 activity); type: in vivo, human; conditions: healthy subjects
Text: Change from baseline in 4-β-hydroxy-cholesterol levels in blood.
Plasma 4-β-hydroxy-cholesterol levels at baseline and the last day of dosing were statistically analyzed using a linear mixed model analysis of covariance with treatment as a fixed effect and the baseline concentration of 4-β-hydroxy-cholesterol as covariate.

healthy subjects [1] = assay: Example 1 Part 1 (SAD): safety in healthy subjects; type: in vivo, human
Procedure: Part 1 comprises a Screening Period of a maximum of 6 weeks. This is followed by a Treatment Period during which subjects are resident at the Clinical Unit from 1 day before investigational medicinal product (IMP) administration (Day −1) until at least 72 hours after IMP administration (Day 4). Subjects receive a single oral dose of AZD5055 or placebo on Day 1. This is followed by a Follow-up Visit within 6±1 day after the IMP dose.
(§1) The study was conducted in healthy male and healthy female subjects of non-childbearing potential with suitable veins for cannulation or repeated venipuncture. […] Also, the subjects were aged 18 to 55 years inclusive for men and women in Part 1 and only men in Part 2. For female subjects in Part 2, the age range was 18 to 49 years inclusive.
(§2) In Part 1 of the study, 3 dose levels of AZD5055 were investigated in 3 cohorts. Each cohort included 8 subjects. Within each cohort, 6 subjects were randomized to receive AZD5055, and 2 subjects were randomized to receive placebo. In Part 2 of the study, 3 dose levels of AZD5055 were investigated in 3 cohorts. In each cohort, 9 subjects were randomized to receive AZD5055, and 3 subjects were randomized to receive placebo.
(§3) Safety endpoints included adverse events; vital signs (supine blood pressure, pulse, respiratory rate, and body temperature); 12-lead ECG, 12-lead dECG, telemetry, physical examinations, clinical laboratory assessments (hematology, clinical chemistry [including serum creatinine and creatine phosphokinase], urinalysis [including protein and albumin creatinine ratios], and cardiac biomarkers [including cardiac Troponin T (cTNT), cardiac Troponin I; (cTNI), and B type natriuretic peptide]), and peripheral oxygen saturation (SpO2).
(§4) All safety data (scheduled and unscheduled) were presented in the data listings. Continuous variables were summarized using descriptive statistics (n, mean, standard deviation, min, median, max) by treatment. Categorical variables were summarized in frequency tables (frequency and proportion) by treatment (both Parts 1 and 2). The analysis of the safety variables was based on the safety analysis set. Adverse events were summarized by System Organ Class (SOC) and Preferred Term (PT) using Medical Dictionary for Regulatory Activities vocabulary. Furthermore, listings of serious adverse events (SAEs) and adverse events leading to the discontinuation of IMP (DAEs) were made and the number of subjects who had any adverse events (AEs), SAEs, DAEs and AEs with severe intensity were summarized. Adverse events that occur before dosing were reported separately. Tabulations and listings of data for ECG, vital signs, AEs, and clinical laboratory tests, measurements were presented.

healthy subjects [2] = assay: Example 1 Part 2 (MAD): safety in healthy subjects; type: in vivo, human
Procedure: Part 2 comprises a Screening Period of a maximum of 6 weeks. This is followed by a treatment period during which subjects are resident at the Clinical Unit from 1 day before IMP administration (Day −1) until at least 72 hours after the last dose given on Day 16 (Day 19). Subjects are dosed for a total of 15 days and receive a single once daily morning dose of AZD5055 or placebo on Day 1 and on Days 3 through Day 16, with no dosing on Day 2. This is followed up a Follow-up Visit within 6±1 day after the IMP dose, and an additional Follow-up Visit within 29±2 days after the last IMP dose.
For cohorts with QD dosing regimens, the Screening Period is followed by a Treatment Period during which subjects are resident at the Clinical Unit from 1 day before IMP administration (Day −1) until at least 72 hours after the last dose given on Day 16 (Day 19). Subjects are dosed for a total of 15 days, receiving a single QD morning dose of AZD5055 or placebo on Day 1 and on Days 3 through Day 16.
For cohorts with BID dosing regimens, the Screening Period is followed by a Treatment Period during which subjects are resident at the Clinical Unit from 1 day before IMP administration (Day −1) until at least 72 hours after the last dose given on Day 16 (Day 19).
Subjects are dosed for a total of 15 days, receiving a single morning dose of AZD5055 or placebo on Day 1 and Day 16, and repeated BID dosing on Day 3 through Day 15, 12 hours (±30 minutes) apart.
For both cohorts, the Treatment Period is followed by a Follow-up Visit within 6±1 day after the last IMP dose, and an additional Follow-up Visit within 29±2 days after the last IMP dose.
as §1, §2, §3, §4

[3] = predicted human absorption, clearance and bioavailability
Procedure: Based on in vitro data, the predicted human oral bioavailability is 70%. The observed oral bioavailability in several animal species is in the range 40% to 60%.
Therefore, a conservative estimate is that Cmax following an IV infusion over 20 minutes is less than 2-fold higher compared to an oral dose, after correcting for F.

β-catenin reporter = β-catenin reporter assay, rodent cells (Bunyard 2019); read-out: in vitro IC50; cited from earlier work
[4] = tested on: renal fibrosis in a UUO model in mice; conditions: mice (Bunyard 2019); cited from earlier work
[5] = Part 1, across all AZD5055 doses
[6] = Part 2, across all AZD5055 doses

SMILES: Cc1cc(-c2nccc3c2ccn3CC(=O)Nc2ccc(-c3cnccn3)cn2)ccn1 [AZD5055, 2-[4-(2-methyl-4-pyridyl)pyrrolo[3,2-c]pyridin-1-yl]-N-(5-pyrazin-2-yl-2-pyridyl)acetamide]
- effect on 4-β-hydroxy-cholesterol (CYP3A4; 14 days of once daily dosing): no effect on 4-β-hydroxy-cholesterol
- effect on CYP3A4 activity (CYP3A4; inferred from 4-β-hydroxy-cholesterol): no significant effect on CYP3A4 activity
- AEs possibly related to AZD5055 (healthy subjects [1]; Part 1): dizziness, ventricular tachycardia, wheezing, upper abdominal pain, vomiting, and nausea
- clinical laboratory results, vital signs, physical examinations, ECGs (healthy subjects [1]; Part 1): No clinically relevant trends
- trends for AEs by SOC or PT (healthy subjects [1]; Part 1): no notable trends
- subjects with at least one AE (healthy subjects [1]; [5]): 4 subjects
- subjects with at least one AE possibly related to AZD5055 (healthy subjects [1]; [5]): 3 subjects
- subjects with at least one AE possibly related to AZD5055, percent (healthy subjects [1]; [5]): 16.7%
- subjects with at least one AE, percent (healthy subjects [1]; [5]): 22.2%
- AE intensity (healthy subjects [1]; Part 1, all AEs): Grade 1 (mild)
- AE outcome (healthy subjects [1]; Part 1, all AEs, by end of study): recovered/resolved by the end of the study
- SAEs, deaths, AEs leading to discontinuation or withdrawal (healthy subjects [1]; Part 1, all doses): no SAEs, deaths, or AEs leading to discontinuation of AZD5055 or withdrawal from the study
- tolerability (healthy subjects [1]; single oral suspension dose 7, 20 and 40 mg, n=6 per dose level): well-tolerated
- tolerability (healthy subjects [2]; 5, 15 and 20 mg QD, oral suspension): well tolerated at all administered doses
- AE intensity, majority of AEs (healthy subjects [2]; Part 2): Grade 1 (mild)
- AEs leading to discontinuation of AZD5055 (healthy subjects [2]; Part 2): 3 AEs
- SAEs or deaths (healthy subjects [2]; Part 2): no SAEs or deaths
- clinical laboratory results, vital signs, physical examinations, ECGs (healthy subjects [2]; Part 2): No clinically relevant trends
- trends for AEs by SOC or PT (healthy subjects [2]; Part 2): no notable trends
- subjects with AE of ventricular tachycardia/non-sustained ventricular tachycardia, Grade 2, possibly related (healthy subjects [2]; Part 2, 5 mg dose): Two
- subjects with AE of coronavirus infection, Grade 1, not considered related (healthy subjects [2]; Part 2, 15 mg dose): One
- AEs possibly related to AZD5055, total (healthy subjects [2]; [6]): 7 AEs
- subjects with an AE of Grade 2 (moderate) intensity (healthy subjects [2]; [6]): 5 subjects
- subjects with at least one AE (healthy subjects [2]; [6]): 21 subjects
- AE outcome (healthy subjects [2]; Part 2, all AEs, by end of study): recovered/resolved by the end of the study
- possibly related AEs: breath odour (healthy subjects [2]; Part 2, number of AEs): 1
- possibly related AEs: dysgeusia (healthy subjects [2]; Part 2, number of AEs): 1
- possibly related AEs: headache (healthy subjects [2]; Part 2, number of AEs): 3
- possibly related AEs: photophobia (healthy subjects [2]; Part 2, number of AEs): 1
- possibly related AEs: ventricular tachycardia (healthy subjects [2]; Part 2, number of AEs): 2
- Cmax after 20-minute IV infusion relative to oral dose ([3]; conservative estimate, after correcting for F): less than 2 fold
- dose absorbed within 20 minutes ([3]; estimated from tmax of 1 hour, oral): approximately 75%
- IC50 (β-catenin reporter): 0.64 nM
- renal fibrosis, UUO model [4]: reduces
